From patent US20050239733A1, “Sequence requirements for inhibitory oligonucleotides” (Coley Pharmaceutical GmbH, priority 2003, published 2005)

Tests used:
human TLR8 = biological target: T1, human TLR8 (Homo sapiens, UniProt Q9NR97); experiment: Inhibition of R-848-mediated NF-κB-luciferase activation in hTLR8-LUC-293 cells; format: cell-based; conditions: general statement 'found according to the present invention'; conditions not given
T1 construct: expressed in transfected cells
T1 sequence (Q9NR97 27-1041): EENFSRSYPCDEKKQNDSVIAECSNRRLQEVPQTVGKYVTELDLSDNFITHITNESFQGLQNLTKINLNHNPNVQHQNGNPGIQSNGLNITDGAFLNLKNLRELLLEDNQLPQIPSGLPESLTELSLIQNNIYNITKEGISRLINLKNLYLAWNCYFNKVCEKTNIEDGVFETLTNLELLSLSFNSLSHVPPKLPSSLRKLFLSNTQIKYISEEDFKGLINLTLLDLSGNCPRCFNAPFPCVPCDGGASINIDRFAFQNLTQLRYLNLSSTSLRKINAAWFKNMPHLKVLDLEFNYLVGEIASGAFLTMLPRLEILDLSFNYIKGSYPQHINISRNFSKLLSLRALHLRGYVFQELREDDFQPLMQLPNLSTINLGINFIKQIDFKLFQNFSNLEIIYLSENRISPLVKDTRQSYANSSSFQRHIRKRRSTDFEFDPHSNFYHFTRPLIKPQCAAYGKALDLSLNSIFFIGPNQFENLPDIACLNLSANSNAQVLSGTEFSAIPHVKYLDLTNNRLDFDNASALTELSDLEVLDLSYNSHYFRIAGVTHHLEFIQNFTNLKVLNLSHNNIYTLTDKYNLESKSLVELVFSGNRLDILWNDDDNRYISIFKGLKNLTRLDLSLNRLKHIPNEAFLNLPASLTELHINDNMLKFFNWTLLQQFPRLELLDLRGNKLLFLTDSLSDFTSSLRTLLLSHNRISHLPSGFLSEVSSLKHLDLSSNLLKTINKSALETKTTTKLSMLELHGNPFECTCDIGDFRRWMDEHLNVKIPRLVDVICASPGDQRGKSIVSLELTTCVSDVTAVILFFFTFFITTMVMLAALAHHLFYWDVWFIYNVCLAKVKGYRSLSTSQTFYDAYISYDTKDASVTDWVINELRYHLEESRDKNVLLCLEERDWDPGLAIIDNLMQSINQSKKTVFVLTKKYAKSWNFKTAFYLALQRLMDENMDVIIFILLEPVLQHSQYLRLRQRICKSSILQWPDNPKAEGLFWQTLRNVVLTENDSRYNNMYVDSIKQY
Description: The previous examples describe the ability of certain inhibitory ODN to inhibit activation of signal transduction mediated by human Toll-like receptor 9 (hTLR9). […] The assay system involved stimulating hTLR8-LUC-293 cells with the TLR8 ligand, R-848 (Resiquimod; Jurk M et al. (2002) Nat Immunol 3:499) in the presence and absence of ODN and comparing the induction of luciferase activity in the absence of ODN to luciferase activity in the presence of ODN.
Cells were assayed for luciferase activity 16 h later. Results were calculated as fold induction above medium background.
Luciferase activity was assayed after 16 h.
hTLR8-LUC-293 cells were incubated with 50 μM R-848 in the presence of increasing concentrations of the following ODN: ODN 2088, D13GT (whererin D is dSpacer), GTN13, N6GTN7, random 15-mer N15, N13GT, and the dinucleotide GT. Luciferase activity was assayed after 16 h. Luciferase activity of R-848 without any ODN was set to 100% (without correction for medium background, i.e. background activity of medium remained at approx. 17%).
Luciferase activity was assayed after 16 h. Luciferase activity of R-848 without any ODN was set to 100% (without correction for medium background, i.e., background activity of medium remained at approx. 17%).
In yet a further set of experiments hTLR8-LUC-293 cells were incubated with 50 μM R-848 in the presence of increasing amounts of different dinucleotides (GT, ODN 603; TG, ODN 688; GG, ODN 689; GU, ODN 690; UG, ODN 691; AT, ODN 692; and TT, ODN 693). Luciferase was assayed after 16 h. Luciferase activity of R-848 without any ODN was set to 100% and remaining R-848-mediated NF-κB activation in the presence of dinucleotides or ODN 2088 was calculated. Medium background was 17% in this set of experiments.
hTLR-LUC-293 cells (expressing the respective humanTLR7, TLR8, or TLR9) were incubated with constant amounts of TLR-agonist (for hTLR7: 2 μM R-848, for hTLR8: 50 μM R-848, and for hTLR9: 0.156 μM CpG ODN 2006) and increasing amounts of TLR-antagonist. […] To compare data for different TLRs, percent remaining activity of agonist was plotted against the log of molar ratio of antagonist to agonist (e.g., for hTLR8: 50 μM R-848 and 5 μM ODN, the plotted ratio is 10^−1). Used ODN concentrations were: for hTLR7 and hTLR8, 5 μM, 0.5 μM, 0.05 μM, and 0.005 μM, and for hTLR9, 2.5 μM, 0.156 μM, 0.0098 μM and 0.00061 μM.

human TLR9 = biological target: T2, human TLR9 (Homo sapiens, UniProt Q9NR96); experiment: Inhibition of CpG ODN 2006-mediated NF-κB-luciferase activation in hTLR9-LUC-293 cells; conditions: for Percent 2006 Activity: equimolar 0.156 μM CpG ODN 2006 and inhibitory ODN; for inhibitory for TLR9: general statement 'found according to the present invention', conditions not given
T2 sequence (Q9NR96 26-1032): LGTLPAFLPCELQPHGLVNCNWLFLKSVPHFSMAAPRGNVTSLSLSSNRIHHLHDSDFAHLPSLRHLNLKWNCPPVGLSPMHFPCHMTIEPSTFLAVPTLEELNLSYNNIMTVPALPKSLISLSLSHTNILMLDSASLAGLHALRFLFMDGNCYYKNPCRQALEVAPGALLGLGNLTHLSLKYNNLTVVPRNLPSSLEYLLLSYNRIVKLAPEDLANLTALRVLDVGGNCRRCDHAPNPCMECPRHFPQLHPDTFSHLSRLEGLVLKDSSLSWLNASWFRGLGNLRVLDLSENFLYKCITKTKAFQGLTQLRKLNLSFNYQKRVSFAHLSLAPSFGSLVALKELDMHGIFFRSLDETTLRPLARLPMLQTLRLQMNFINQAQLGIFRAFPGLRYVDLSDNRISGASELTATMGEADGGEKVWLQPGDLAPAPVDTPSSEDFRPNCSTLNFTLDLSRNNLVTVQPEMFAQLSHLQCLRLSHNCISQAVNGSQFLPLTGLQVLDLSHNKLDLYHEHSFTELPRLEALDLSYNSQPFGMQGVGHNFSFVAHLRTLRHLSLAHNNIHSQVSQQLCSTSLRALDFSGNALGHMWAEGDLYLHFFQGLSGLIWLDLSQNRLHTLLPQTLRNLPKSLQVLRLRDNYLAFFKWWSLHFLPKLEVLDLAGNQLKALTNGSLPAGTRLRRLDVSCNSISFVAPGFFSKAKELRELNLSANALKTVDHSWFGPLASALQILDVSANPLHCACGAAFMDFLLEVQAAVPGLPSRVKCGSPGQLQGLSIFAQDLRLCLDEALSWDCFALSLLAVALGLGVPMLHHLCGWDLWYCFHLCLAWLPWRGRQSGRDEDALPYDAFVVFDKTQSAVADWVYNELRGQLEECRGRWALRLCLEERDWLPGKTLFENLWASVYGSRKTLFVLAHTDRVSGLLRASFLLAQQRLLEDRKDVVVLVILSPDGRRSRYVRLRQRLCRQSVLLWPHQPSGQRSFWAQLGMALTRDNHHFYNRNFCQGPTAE

human PBMC = experiment: Inhibition of CpG ODN 2395-induced IFN-α secretion by human PBMC; format: cell-based; conditions: FIG. 9; 0.5 μM CpG ODN 2395, increasing ODN, 24 h
Description: In this set of experiments human PBMC were isolated from human blood and incubated in the presence of 0.5 μM CpG ODN 2395 ([…]; SEQ ID NO:30) and increasing concentrations of inhibitory ODN. CpG ODN 2395 induces high amounts of IFN-α in human PBMC through TLR9-mediated signaling. The secreted amount of IFN-α induced by CpG ODN 2395 after 24 h was set to 100%.

[1] = Table 3 (nucleotides flanking 5′ CC, truncations)

Row | Sequence | inhibitory for TLR8 (human TLR8) | Percent 2006 Activity (human TLR9; [1]) [%] | inhibitory for TLR9 (human TLR9) | inhibition of IFN-α production in human PBMC, in words (human PBMC) | Percent 2006 Activity (human TLR9; Table 2 (5′ CC replaced by other dinucleotides)) [%]
1 | TCCCGGCGGGGAAGT (DNA, backbone and methylation of C not given here) [ODN 155] | inhibitory | 11 | inhibitory |  | 
2 | CCTTGTTGGG (DNA, backbone and methylation of C not given here) [ODN 223] |  |  |  | inhibited | 
3 | GCCTGGCGGGGAAGT (DNA, backbone and methylation of C not given here) [ODN 940] | inhibitory | 13 | inhibitory |  | 
4 | TCCTGGAGGGGAAGT (DNA, backbone and methylation of C not given here) [ODN 2114] | inhibitory |  | inhibitory |  | 
5 | CCCTGGCGGGGAAGT (DNA, backbone and methylation of C not given here) [ODN 942] | inhibitory | 8 | inhibitory |  | 
6 | NNNNNNNNNNNNNGT [ODN 467] |  |  |  | not | 
7 | TGTTGGCGGGGAAGT (listed as DNA, chemistry not given here) [ODN 445] | inhibitory |  |  |  | 97
